Measurements: article PMC10955071, “AGRAMP: machine learning models for predicting antimicrobial peptides against phytopathogenic bacteria” (Frontiers in Microbiology, 2024)
Like-named read-outs stand apart in the source and are kept apart here. Ends that are not written are not given here.

Legend:
[1] = tested on: Spiroplasma citri strain R8A2; settings: for MIC: S. citri R8A2, LD8A3 medium + fetal bovine serum, phenol red, OD560, 48 h, triplicate, Resistant = ineffective; for activity against Spiroplasma citri in MIC assay (Positive/Negative, figure heading): Figures 5 and 6, positive = high activity, negative = no activity in MIC assay
[2] = tested on: Spiroplasma citri; settings: cited from earlier work; for MIC: spiroplasma MIC from literature; for MIC concentration: S. citri, ref Béven et al. (1997)
Source text: Table 7 Aggregation values of AMPs, predicted AMPs, and predicted NOAMPs. | column: MIC; Lab assay || Figure 6 Charge density analysis of predicted antimicrobial peptides (AMPs) tested in minimum inhibitory concentration (MIC) assays. […] The secondary structure of each AMP is indicated at the bottom of the respective graph. […] Intriguingly, the LK peptides had higher aggregation propensities (in the high 40s and 50s), while the peptides in the 1997 study had slightly positive (5.7, 1.3) and negative (−1.3) aggregation scores when input into AGGRESCAN. The positive control, Mel ...

[3] = ref Bevin2002 (Béven et al., 2003)
[4] = ref Bevin1997 (Béven et al., 1997)

## MLLQRLIFKPIRIIWHT [I3441]
[1]
  SpiroC MIC (48hrs): 25 µg/mL

## MILKRVFRMKNKKASV [G10159]
[1]
  MIC: Resistant

## MGFLLKTLSHIRRVIRLII [G389]
[1]
  MIC (48hrs) Resistant (R): 50 µg/mL

## MMKKVIKLQKMIALGKIVKRFSLY [I4455]
[1]
  SpiroC MIC (48hrs): 12.5 µg/mL

## MERRRLAAKLANKLVRIGWIG [I5196]
[1]
  MIC: Resistant

## KLLKLLLKLLLKLLK [LK15_3.6, LK peptide (leucine/lysine copolymer) from Béven et al., 2003]
[2]; [3]
  MIC: 6.25 µM

## MSRKLRKGKRQLKSPRFGKIVI [I2769]
[1]
  MIC: Resistant

## MVSHLFCFKFIRNLRFKKIR [G19]
[1]
  MIC (48hrs) Resistant (R): 50 µg/mL

## MILSVLKIFGVFRKRSRGN [I3440]
[1]
  SpiroC MIC (48hrs): 25 µg/mL

## MFLLRRILKKLRTIFIQ [I3435]
[1]
  MIC: 50 µg/mL
[1]; Set1, tested at 50, 25, 12.5 μg/mL, OD560, triplicate
  SpiroC MIC (48hrs): 50 µg/mL

## MGLGLHLLLAAALQGAKKKRKV [P2, synthetic peptide from Béven et al., 1997]
[2]
  MIC concentration: 100 µM
[2]; [4]
  MIC: 100 µM

## MAQSKRYKARLVAKRIHAVKKY [G221]
[1]
  activity against Spiroplasma citri in MIC assay (Positive/Negative, figure heading): Negative
  MIC: Resistant

## MGLGLHLLVLAAALQGAWSQPKKKRKV [P1, synthetic peptide from Béven et al., 1997]
[2]
  MIC concentration: 100 µM
[2]; [4]
  MIC: 100 µM

## Mellitin: positive control peptide in Béven et al., 1997
[2]; [4]
  MIC: 0.39 to .78 µM

## MIDNKIGLVVKWLRSK [I3775]
[1]
  MIC: Resistant

## MGLGLHLLVLAAALQGAKKKRKV [P3, synthetic peptide from Béven et al., 1997]
[2]
  MIC concentration: 100 µM
[2]; [4]
  MIC: 100 µM

## MLNLKLIRLLRHRFAI [G15]
[1]
  MIC (48hrs) Resistant (R): 50 µg/mL

## MITGRQKALKFIKKKVGGIQ [G196]
[1]
  MIC: Resistant

## MCRRKGGLIGRAPPCRGRLAC [G9994]
[1]
  MIC: Resistant

## MILRLPHLINCTTTGLISKITSYLG [I4992]
[1]
  activity against Spiroplasma citri in MIC assay (Positive/Negative, figure heading): Negative
  MIC: Resistant

## MIVRIAIRRFLKGKRQIVKI [G33]
[1]
  MIC (48hrs) Resistant (R): 25 µg/mL

## MARKAISKVIVGTRRKKKK [G66]
[1]
  MIC: Resistant

## MLIMRKIKKKKRKNRHI [G54]
[1]
  MIC: Resistant

## KLLKLLLKLLLKLWK [LK15_W14_3.6, LK peptide (leucine/lysine copolymer) from Béven et al., 2003]
[2]; [3]
  MIC: 6.25 µM

## MKSIKIKIKRLNSKNKKILILIFI [I970]
[1]
  SpiroC MIC (48hrs): 25 µg/mL

## MLKCHLVGFVRRLIN [I2572]
[1]
  SpiroC MIC (48hrs): 25 µg/mL
